Test results taken from ChEMBL document CHEMBL1821627, “Medicinal chemistry as a conduit for the modulation of quorum sensing” (J Med Chem, 2010).
Where a SMILES comes first, the peptide text is derived from it. Bridges are numbered along the chain shown (N, C = ends). [ ]: non-standard residue; d: D form. NMeF = CN[C@@H](Cc1ccccc1)C(=O)O; NMeL = CN[C@@H](CC(C)C)C(=O)O; NMeS = CN[C@@H](CO)C(=O)O; Dap = NC[C@H](N)C(=O)O; Ava = NCCCCC(=O)O; Mpa = O=C(O)CCS

Assays:
[1] = Inhibition of Staphylococcus aureus Quorum sensing system AgrC-II activation after 60 to 90 minutes by beta-lactamase reporter assay
[2] = Inhibition of Staphylococcus aureus Quorum sensing system AgrC-I activation after 60 to 90 minutes by beta-lactamase reporter assay
[3] = target: T1, Transcriptional activator protein LasR (Pseudomonas aeruginosa (strain ATCC 15692 / PAO1 / 1C / PRS 101 / LMG12228), UniProt P25084); assay: Antagonist activity at Pseudomonas aeruginosa LasR receptor assessed as inhibition of bioluminescence by reporter gene assay; type: functional
T1 sequence (P25084 whole entry): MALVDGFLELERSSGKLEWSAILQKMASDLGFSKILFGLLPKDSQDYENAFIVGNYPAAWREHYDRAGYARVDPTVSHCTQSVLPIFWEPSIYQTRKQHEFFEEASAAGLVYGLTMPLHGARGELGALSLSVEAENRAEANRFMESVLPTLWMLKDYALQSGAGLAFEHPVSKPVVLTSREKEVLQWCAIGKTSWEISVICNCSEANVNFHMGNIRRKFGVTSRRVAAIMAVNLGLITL

[4] = Inhibition of quorum sensing regulated bioluminescence in Vibrio harveyi
[5] = target: T1, Transcriptional activator protein LasR; assay: Agonist activity at Pseudomonas aeruginosa LasR cognate receptor expressed in Escherichia coli harboring pKDT17 assessed as activation of lasB expression by LacZ reporter gene assay; type: functional
[6] = Inhibition of quorum sensing in Pseudomonas aeruginosa assessed as inhibition of LasR-dependent yellow fluorescent protein emission by luminescence assay
[7] = tested on: Chromobacterium violaceum; assay: In vivo inhibition of violacein production in Chromobacterium violaceum; type: functional, organism-based
[8] = target: T1, Transcriptional activator protein LasR; assay: Antagonist activity at Pseudomonas aeruginosa LasR receptor expressed in Escherichia coli in presence of 7.5 nM natural auto-inducer 3-oxo-C12-HSL; type: functional
[9] = Inhibition of autoinducer-stimulated quorum sensing regulated bioluminescence in Vibrio fischeri by luminescence assay; parameters: species or system Aliivibrio fischeri
[10] = Inhibition of quorum sensing Salmonella Typhimurium by beta-galactosidase transcription assay in presence of 50 uM DPD; parameters: species or system Salmonella enterica subsp. enterica serovar Typhimurium
[11] = target: T2, Transcriptional activator protein LuxR (Aliivibrio fischeri, UniProt P12746); assay: Antagonist activity at Vibrio fischeri luxR receptor in presence of 5 uM 3-oxo-C6-HSL; type: functional
T2 sequence (P12746 whole entry): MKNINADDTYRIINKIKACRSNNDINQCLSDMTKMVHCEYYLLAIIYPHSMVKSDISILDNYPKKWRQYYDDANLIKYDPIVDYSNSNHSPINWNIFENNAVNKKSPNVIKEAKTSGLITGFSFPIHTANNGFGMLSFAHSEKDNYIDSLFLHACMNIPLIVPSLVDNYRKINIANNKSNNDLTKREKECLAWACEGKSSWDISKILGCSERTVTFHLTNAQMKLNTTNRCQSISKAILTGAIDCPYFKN

[12] = Induction of quorum sensing activity in Pseudomonas aeruginosa assessed as maximal induction of LasR-dependent yellow fluorescent protein emission by luminescence assay
[13] = target: T3, Autoinducer 1 sensor kinase/phosphatase LuxN (Vibrio harveyi, UniProt P0C5S6); assay: Inhibition of LuxN-dependent bioluminescence in Vibrio harveyi
T3 sequence (P0C5S6 whole entry): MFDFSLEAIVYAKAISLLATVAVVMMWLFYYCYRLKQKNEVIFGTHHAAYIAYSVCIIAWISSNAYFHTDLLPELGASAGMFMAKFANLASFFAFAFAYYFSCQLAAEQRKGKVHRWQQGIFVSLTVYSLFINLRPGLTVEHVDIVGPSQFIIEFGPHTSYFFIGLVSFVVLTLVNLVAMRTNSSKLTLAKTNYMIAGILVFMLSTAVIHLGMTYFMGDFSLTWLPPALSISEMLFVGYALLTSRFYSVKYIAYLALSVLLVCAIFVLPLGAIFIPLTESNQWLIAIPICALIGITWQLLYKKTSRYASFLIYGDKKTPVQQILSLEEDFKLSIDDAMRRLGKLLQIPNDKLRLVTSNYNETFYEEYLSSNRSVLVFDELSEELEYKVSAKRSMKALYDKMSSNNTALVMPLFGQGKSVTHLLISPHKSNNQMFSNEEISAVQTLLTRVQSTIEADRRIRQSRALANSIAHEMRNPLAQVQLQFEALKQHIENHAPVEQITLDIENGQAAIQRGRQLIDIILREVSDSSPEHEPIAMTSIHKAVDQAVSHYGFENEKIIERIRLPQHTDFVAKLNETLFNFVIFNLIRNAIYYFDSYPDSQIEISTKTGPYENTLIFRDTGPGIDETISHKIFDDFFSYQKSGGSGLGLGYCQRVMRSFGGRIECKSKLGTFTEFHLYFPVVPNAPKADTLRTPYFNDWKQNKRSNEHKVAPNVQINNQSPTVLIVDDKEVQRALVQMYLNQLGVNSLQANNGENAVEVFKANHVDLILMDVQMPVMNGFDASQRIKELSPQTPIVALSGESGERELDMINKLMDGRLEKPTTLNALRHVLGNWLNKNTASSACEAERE

## CC(C)C[C@@H]1NC(=O)[C@H](CO)NC(=O)[C@H](CO)NC(=O)CCSC(=O)[C@H](Cc2ccccc2)NC1=O ([Mpa]SSLF; thioester 1-C)
[1]; read-out: IC50
  IC50: 47300 nM
[2]; read-out: IC50
  IC50: 1680 nM

## O=C(CCCCCCCCN=C=S)CC(=O)N[C@H]1CCOC1=O
[3]
  IC50: 300000 nM

## CC(=O)N[C@H]1CSC(=O)[C@H](Cc2ccccc2)NC(=O)[C@H](CC(C)C)NC(=O)CNC(=O)[C@H](CO)NC1=O (Ac-CSGLF; thioester 1-C)
[1]; read-out: IC50
  IC50: 194 nM
[2]; read-out: IC50
  IC50: 40 nM

## NC(=S)CS(=O)(=O)c1cccs1
[4]
  IC50: 35000 nM

## CCCCC/C=C/CCC(=O)CC(=O)N[C@H]1CCOC1=O
[5]
  EC50: 10 nM

## CCCCCCCCCCCCn1nnc(CC(=O)O)n1
[6]
  IC50: 30 nM

## Cc1ccc(B(O)O)cc1F
[4]
  IC50: 9000 nM

## O=C(CCCCCCCCCCN=C=S)CC(=O)N[C@H]1CCOC1=O
[3]
  IC50: 45200 nM

## CCCCCCCCCCCC(=O)N[C@H]1CCOC1=O
[5]
  EC50: 33 nM

## CCOC(=O)CS(=O)(=O)c1ccc(-c2ccccc2)cc1
[4]
  IC50: 8700 nM

## CC(=O)N[C@H]1CSC(=O)[C@H](Cc2ccccc2)NC(=O)[C@H](CC(C)C)NC(=O)CCCCNC1=O (Ac-C[Ava]LF; thioester 1-C)
[1]; read-out: IC50
  IC50: 507000 nM
[2]; read-out: IC50
  IC50: 1140 nM

## CC(=O)N[C@H]1CSC(=O)[C@H](Cc2ccccc2)NC(=O)[C@H](CC(C)C)NC(=O)[C@H](CO)NC(=O)[C@H](CO)N(C)C1=O (Ac-C[NMeS]SLF; thioester 1-C)
[1]; read-out: IC50
  IC50: 7880 nM
[2]; read-out: IC50
  IC50: 639 nM

## O=C(CCCOc1ccc(Cl)cc1)NC1CCOC1=O (configuration not stated)
[7]
  IC50: 295 nM

## CCCCCCCCCC(=O)CC(=O)N[C@H]1CCSC1=O
[5]
  EC50: 7 nM

## CCN(CC)C(=S)CS(=O)(=O)c1cccs1
[4]
  IC50: 138000 nM

## O=C(c1ccccc1)c1ccc(O)c(O)c1O
[4]
  IC50: 4000 nM

## Cc1cc(Cl)ccc1OCCCC(=O)NC1CCSC1=O (configuration not stated)
[7]
  IC50: 1200 nM

## CC[C@H](C)[C@@H]1NC(=O)[C@H](Cc2ccccc2)NC(=O)[C@H](C)NC(=O)[C@@H](NC(=O)[C@@H](NC(=O)[C@H](CO)NC(=O)[C@@H](N)Cc2ccc(O)cc2)[C@@H](C)O)CSC(=O)[C@H](CSC)NC1=O (H-YSTCAFIC(Me); thioester 4-C)
[1]; read-out: IC50
  IC50: 4 nM
[2]; read-out: IC50
  IC50: 21 nM

## CC(=O)N[C@H]1CSC(=O)[C@H](Cc2ccccc2)NC(=O)[C@H](CC(C)C)NC(=O)[C@H](CO)N(C)C(=O)[C@H](CO)NC1=O (Ac-CS[NMeS]LF; thioester 1-C)
[1]; read-out: IC50
  IC50: 1050 nM
[2]; read-out: IC50
  IC50: 319 nM

## O=c1ccc2ccc(O)c(O)c2o1 [DAPHNETIN]
[4]
  IC50: 12000 nM

## O=C(Cc1ccc(I)cc1)N[C@H]1CCOC1=O
[8]
  IC50: 1720 nM

## CCOC(=O)CS(=O)(=O)c1ccc(-c2ccc3c(c2)OCCO3)cc1
[4]
  IC50: 158000 nM

## CC(=O)N[C@H]1CSC(=O)[C@H](Cc2ccccc2)NC(=O)[C@H](CC(C)C)NC(=O)[C@H](CO)NC(=O)CNC1=O (Ac-CGSLF; thioester 1-C)
[1]; read-out: IC50
  IC50: 1160 nM
[2]; read-out: IC50
  IC50: 189 nM

## CC(=O)N[C@H]1CSC(=O)[C@H](Cc2ccccc2)N(C)C(=O)[C@H](CC(C)C)NC(=O)[C@H](CO)NC(=O)[C@H](CO)NC1=O (Ac-CSSL[NMeF]; thioester 1-C)
[1]
  IC50: Not Active
[2]
  IC50: Not Active

## O=C(CCCCCCCCCNC(=O)CBr)CC(=O)N[C@H]1CCOC1=O
[3]
  IC50: 100000 nM

## CCCCCCCCC(=O)N[C@H]1CCOC1=O
[9]
  IC50: 12.4 nM

## [N-]=[N+]=NCCCCC(=O)C(=O)[C@@H](O)CO
[10]
  IC50: 20300 nM

## CCCCCCCC(=O)N[C@H]1CCOC1=O
[11]
  IC50: 770 nM

## CCOC(=S)CS(=O)(=O)c1ccc(-c2ccccc2)cc1
[4]
  IC50: 5700 nM

## CCOC(=O)CS(=O)(=O)c1ccc(-c2cncc3ccccc23)cc1
[4]
  IC50: > 400000 nM

## O=C(Oc1c(Br)cc(Br)cc1CNC(=O)c1ccccc1Cl)c1ccc(F)cc1
[12]
  EC50: 240 nM

## OB(O)c1ccc(OCc2ccccc2)cc1
[4]
  IC50: 4000 nM

## N#Cc1ccc(B(O)O)cc1
[4]
  IC50: 6000 nM

## O=C(CCc1ccccc1)C(=O)[C@@H](O)CO
[10]
  IC50: > 50000 nM

## COC(=O)c1ccc(B(O)O)cc1
[4]
  IC50: 5000 nM

## CC(C)OC(=O)CSc1nc2ccccc2[nH]1
[13]
  IC50: 62300 nM

## Oc1ccccc1O [CATECHOL]
[4]
  IC50: 59000 nM

## Oc1cccc(O)c1O [PYROGALLOL]
[4]
  IC50: 2000 nM

## NC(=S)CS(=O)(=O)c1ccccn1
[4]
  IC50: 35000 nM

## CCCCCCCCCC(O)CC(=O)N[C@H]1CCOC1=O (some centres not stated)
[5]
  EC50: 54 nM

## O=C(CCc1ccc(Br)cc1)N[C@H]1CCOC1=O
[8]
  IC50: 340 nM

## CCOC(=S)CS(=O)(=O)c1cccs1
[4]
  IC50: 22000 nM

## CC(=O)N[C@H]1CSC(=O)[C@H](Cc2ccccc2)NC(=O)[C@H](CC(C)C)N(C)C(=O)[C@H](CO)NC(=O)[C@H](CO)NC1=O (Ac-CSS[NMeL]F; thioester 1-C)
[1]
  IC50: Not Active
[2]
  IC50: Not Active

## CC(C)(c1ccccc1)c1ccc(OCC(=O)NC2CCCC2)cc1
[13]
  IC50: 2400 nM

## CCCCCCC(=O)C(=O)[C@@H](O)CO
[10]
  IC50: 24900 nM

## Cc1cc(Br)cc(CNC(=O)c2ccccc2Cl)c1OC(=O)c1ccc(Cl)cc1Cl
[12]
  EC50: 920 nM

## O=C(Cc1ccc(C(F)(F)F)cc1)N[C@H]1CCOC1=O
[11]
  IC50: 610 nM

## CCC(=O)C(=O)[C@@H](O)CO
[10]
  IC50: > 50000 nM

## O=C(CCCOc1ccc(Cl)cc1)NC1CCSC1=O (configuration not stated)
[7]
  IC50: 723 nM

## CC(=O)N1CCc2ccc(S(=O)(=O)NC(CC(C)C)C(=O)NCc3ccc(Cl)cc3)cc21 (configuration not stated)
[13]
  IC50: 2700 nM

## O=C(CCCCCCCCCN=C=S)CC(=O)N[C@H]1CCOC1=O
[3]
  IC50: 113000 nM

## COc1ccc(CNC(=O)C(NS(=O)(=O)c2ccc3nc(C)sc3c2)C(C)C)cc1 (configuration not stated)
[13]
  IC50: 2900 nM

## Cc1ccc(B(O)O)c(F)c1
[4]
  IC50: 4000 nM

## CCCC(=O)CC(=O)N[C@H]1CCSC1=O
[9]
  IC50: 131 nM

## NC(=O)CS(=O)(=O)c1cccs1
[4]
  IC50: > 400000 nM

## CC(=O)N[C@H]1CNC(=O)[C@H](Cc2ccccc2)NC(=O)[C@H](CC(C)C)NC(=O)[C@H](CO)NC(=O)[C@H](CO)NC1=O (Ac-[Dap]SSLF; lactam 1-C)
[1]; read-out: IC50
  IC50: 167000 nM
[2]; read-out: IC50
  IC50: 1390 nM

## CCCCCCCC(=O)CC(=O)N[C@H]1CCOC1=O
[5]
  EC50: 15 nM

## O=C(c1ccc(Cl)cc1)c1ccc(S(=O)(=O)c2ccc(Cl)cc2)cc1
[13]
  IC50: 2600 nM

## O=Cc1ccc(O)c(O)c1O
[4]
  IC50: 4000 nM

## CC(=O)N[C@H]1CSC(=O)[C@H](Cc2ccccc2)NC(=O)[C@H](CC(C)C)NC(=O)CNC(=O)CNC1=O (Ac-CGGLF; thioester 1-C)
[1]; read-out: IC50
  IC50: 238 nM
[2]; read-out: IC50
  IC50: 77 nM

## O=C(Oc1c(Br)cc(Br)cc1CNC(=O)c1ccccc1[N+](=O)[O-])c1ccccc1Cl
[12]
  EC50: 14 nM
